According to ChEMBL document CHEMBL1909639, “Synthesis, stereochemistry and in vitro antimicrobial evaluation of novel 2-[(2,4-diaryl-3-azabicyclo[3.3.1]nonan-9-ylidene)hydrazono]-4-phenyl-2,3-dihydrothiazoles” (2011):
In brackets after ≈: the same amount, converted by molar mass. Activity calls are given as the source filed them. No cut-off for these calls is given here.

Columns and labels:
Staphylococcus aureus = assay: Antibacterial activity against Staphylococcus aureus ATCC 25825 after 24 hrs by twofold serial dilution method; type: functional; details: ATCC 25825, 24 h
Bacillus subtilis [1] = assay: Antibacterial activity against Bacillus subtilis ATCC 451 after 24 hrs by twofold serial dilution method; type: functional; details: ATCC 451, 24 h
Salmonella typhi [2] = assay: Antibacterial activity against Salmonella typhi ATCC 24915 after 24 hrs by twofold serial dilution method; type: functional, Salmonella enterica subsp. enterica serovar Typhi; details: Salmonella enterica, ATCC 24915, 24 h
Escherichia coli [3] = assay: Antibacterial activity against Escherichia coli ATCC 25835 after 24 hrs by twofold serial dilution method; type: functional; details: ATCC 25835, 24 h
Klebsiella pneumoniae [4] = assay: Antibacterial activity against Klebsiella pneumoniae ATCC 15490 after 24 hrs by twofold serial dilution method; type: functional; details: ATCC 15490, 24 h
Cryptococcus neoformans [5] = assay: Antifungal activity against Cryptococcus neoformans ATCC 3312 after 72 to 96 hrs by twofold serial dilution method; type: functional
Candida albicans = assay: Antifungal activity against Candida albicans ATCC 3122 by twofold serial dilution method; type: functional
Rhizopus [6] = assay: Antifungal activity against Rhizopus sp. ATCC 2915 after 72 to 96 hrs by twofold serial dilution method; type: functional
Aspergillus niger = assay: Antifungal activity against Aspergillus niger ATCC 598 after 72 to 96 hrs by twofold serial dilution method; type: functional
Aspergillus flavus [7] = assay: Antifungal activity against Aspergillus flavus ATCC 485 after 72 to 96 hrs by twofold serial dilution method; type: functional
Klebsiella pneumoniae [8] = assay: Antibacterial activity against Klebsiella pneumoniae ATCC 15490 at 200 ug/mL after 24 hrs by twofold serial dilution method; type: functional, organism-based
Cryptococcus neoformans [9] = assay: Antifungal activity against Cryptococcus neoformans ATCC 3312 at 200 ug/mL after 72 to 96 hrs by twofold serial dilution method; type: functional, organism-based
Escherichia coli [10] = assay: Ratio of compound MIC over streptomycin MIC for Escherichia coli ATCC 25835; type: functional
Escherichia coli [11] = assay: Antibacterial activity against Escherichia coli ATCC 25835 at 200 ug/mL after 24 hrs by twofold serial dilution method; type: functional, organism-based
Aspergillus flavus [12] = assay: Antifungal activity against Aspergillus flavus ATCC 485 at 200 ug/mL after 72 to 96 hrs by twofold serial dilution method; type: functional, organism-based
Bacillus subtilis [13] = assay: Antibacterial activity against Bacillus subtilis ATCC 451 at 200 ug/mL after 24 hrs by twofold serial dilution method; type: functional, organism-based
Rhizopus [14] = assay: Antifungal activity against Rhizopus sp. ATCC 2915 at 200 ug/mL after 72 to 96 hrs by twofold serial dilution method; type: functional, organism-based
Salmonella typhi [15] = assay: Antibacterial activity against Salmonella typhi ATCC 24915 at 200 ug/mL after 24 hrs by twofold serial dilution method; type: functional, organism-based; details: Salmonella enterica subsp. enterica serovar Typhi

SMILES	MIC (Staphylococcus aureus)	MIC (Bacillus subtilis [1])	MIC (Salmonella typhi [2])	MIC (Escherichia coli [3])	MIC (Klebsiella pneumoniae [4])	MIC (Cryptococcus neoformans [5])	MIC (Candida albicans)	MIC (Rhizopus [6])	MIC (Aspergillus niger)	MIC (Aspergillus flavus [7])	Activity (Klebsiella pneumoniae [8])	Activity (Cryptococcus neoformans [9])	Ratio (Escherichia coli [10])	Activity (Escherichia coli [11])	Activity (Aspergillus flavus [12])	Activity (Bacillus subtilis [13])	Activity (Rhizopus [14])	Activity (Salmonella typhi [15])
Fc1cccc([C@H]2N[C@@H](c3cccc(F)c3)C3CCCC2/C3=N/N=c2\scc(-c3ccccc3)n2-c2ccccc2)c1	50 µg/mL (≈ 86.7 µM)	100 µg/mL (≈ 173 µM)	12.5 µg/mL (≈ 21.7 µM)	12.5 µg/mL (≈ 21.7 µM)	100 µg/mL (≈ 173 µM)	200 µg/mL (≈ 347 µM)	12.5 µg/mL (≈ 21.7 µM)	100 µg/mL (≈ 173 µM)	25 µg/mL (≈ 43.3 µM)	200 µg/mL (≈ 347 µM)	–	–	–	–	–	–	–	–
c1ccc(-c2cs/c(=N\N=C3\C4CCCC3[C@H](c3ccccc3)N[C@@H]4c3ccccc3)n2-c2ccccc2)cc1	25 µg/mL (≈ 46.2 µM)	100 µg/mL (≈ 185 µM)	100 µg/mL (≈ 185 µM)	200 µg/mL (≈ 370 µM)	–	50 µg/mL (≈ 92.5 µM)	12.5 µg/mL (≈ 23.1 µM)	200 µg/mL (≈ 370 µM)	200 µg/mL (≈ 370 µM)	100 µg/mL (≈ 185 µM)	inactive	–	–	–	–	–	–	–
Fc1ccc([C@H]2N[C@@H](c3ccc(F)cc3)C3CCCC2/C3=N/N=c2\scc(-c3ccccc3)n2-c2ccccc2)cc1	12.5 µg/mL (≈ 21.7 µM)	6.25 µg/mL (≈ 10.8 µM)	50 µg/mL (≈ 86.7 µM)	100 µg/mL (≈ 173 µM)	100 µg/mL (≈ 173 µM)	–	12.5 µg/mL (≈ 21.7 µM)	50 µg/mL (≈ 86.7 µM)	100 µg/mL (≈ 173 µM)	200 µg/mL (≈ 347 µM)	–	inactive	–	–	–	–	–	–
Clc1ccc([C@H]2N[C@@H](c3ccc(Cl)cc3)C3CCCC2/C3=N/N=c2\scc(-c3ccccc3)n2-c2ccccc2)cc1	25 µg/mL (≈ 41 µM)	12.5 µg/mL (≈ 20.5 µM)	25 µg/mL (≈ 41 µM)	100 µg/mL (≈ 164 µM)	–	50 µg/mL (≈ 82 µM)	100 µg/mL (≈ 164 µM)	6.25 µg/mL (≈ 10.3 µM)	25 µg/mL (≈ 41 µM)	100 µg/mL (≈ 164 µM)	inactive	–	–	–	–	–	–	–
Clc1ccccc1[C@H]1N[C@@H](c2ccccc2Cl)C2CCCC1/C2=N/N=c1/[nH]c(-c2ccccc2)cs1	100 µg/mL (≈ 187 µM)	12.5 µg/mL (≈ 23.4 µM)	25 µg/mL (≈ 46.9 µM)	6.25 µg/mL (≈ 11.7 µM)	100 µg/mL (≈ 187 µM)	6.25 µg/mL (≈ 11.7 µM)	25 µg/mL (≈ 46.9 µM)	100 µg/mL (≈ 187 µM)	100 µg/mL (≈ 187 µM)	50 µg/mL (≈ 93.7 µM)	–	–	1	–	–	–	–	–
Fc1ccc([C@H]2N[C@@H](c3ccc(F)cc3)C3CCCC2/C3=N/N=c2/[nH]c(-c3ccccc3)cs2)cc1	200 µg/mL (≈ 400 µM)	12.5 µg/mL (≈ 25 µM)	50 µg/mL (≈ 99.9 µM)	50 µg/mL (≈ 99.9 µM)	12.5 µg/mL (≈ 25 µM)	100 µg/mL (≈ 200 µM)	100 µg/mL (≈ 200 µM)	50 µg/mL (≈ 99.9 µM)	12.5 µg/mL (≈ 25 µM)	6.25 µg/mL (≈ 12.5 µM)	–	–	–	–	–	–	–	–
CN[C@@H]1[C@H](O[C@H]2[C@H](O[C@H]3[C@H](O)[C@@H](O)[C@H](N=C(N)N)[C@@H](O)[C@@H]3N=C(N)N)O[C@@H](C)[C@]2(O)C=O)O[C@@H](CO)[C@H](O)[C@H]1O [STREPTOMYCIN]	50 µg/mL (≈ 86 µM)	12.5 µg/mL (≈ 21.5 µM)	50 µg/mL (≈ 86 µM)	12.5 µg/mL (≈ 21.5 µM)	25 µg/mL (≈ 43 µM)	–	–	–	–	–	–	–	–	–	–	–	–	–
C[C@@H]1[C@H](O)[C@@H](C)/C=C/C=C/C=C/C=C/C=C/C=C/C=C/[C@H](O[C@@H]2O[C@H](C)[C@@H](O)[C@H](N)[C@@H]2O)C[C@@H]2O[C@](O)(C[C@@H](O)C[C@@H](O)[C@H](O)CC[C@@H](O)C[C@@H](O)CC(=O)O[C@H]1C)C[C@H](O)[C@H]2C(=O)O [AMPHOTERICIN B]	–	–	–	–	–	25 µg/mL (≈ 27.1 µM)	25 µg/mL (≈ 27.1 µM)	25 µg/mL (≈ 27.1 µM)	50 µg/mL (≈ 54.1 µM)	50 µg/mL (≈ 54.1 µM)	–	–	–	–	–	–	–	–
Cc1ccc([C@H]2N[C@@H](c3ccc(C)cc3)C3CCCC2/C3=N/N=c2/[nH]c(-c3ccccc3)cs2)cc1	200 µg/mL (≈ 406 µM)	50 µg/mL (≈ 101 µM)	200 µg/mL (≈ 406 µM)	12.5 µg/mL (≈ 25.4 µM)	200 µg/mL (≈ 406 µM)	–	200 µg/mL (≈ 406 µM)	12.5 µg/mL (≈ 25.4 µM)	50 µg/mL (≈ 101 µM)	200 µg/mL (≈ 406 µM)	–	inactive	–	–	–	–	–	–
c1ccc(-c2cs/c(=N\N=C3\C4CCCC3[C@H](c3ccccc3)N[C@@H]4c3ccccc3)[nH]2)cc1	25 µg/mL (≈ 53.8 µM)	200 µg/mL (≈ 430 µM)	100 µg/mL (≈ 215 µM)	–	100 µg/mL (≈ 215 µM)	100 µg/mL (≈ 215 µM)	200 µg/mL (≈ 430 µM)	200 µg/mL (≈ 430 µM)	50 µg/mL (≈ 108 µM)	–	–	–	–	inactive	inactive	–	–	–
Fc1cccc([C@H]2N[C@@H](c3cccc(F)c3)C3CCCC2/C3=N/N=c2/[nH]c(-c3ccccc3)cs2)c1	12.5 µg/mL (≈ 25 µM)	–	200 µg/mL (≈ 400 µM)	25 µg/mL (≈ 49.9 µM)	25 µg/mL (≈ 49.9 µM)	50 µg/mL (≈ 99.9 µM)	100 µg/mL (≈ 200 µM)	–	200 µg/mL (≈ 400 µM)	100 µg/mL (≈ 200 µM)	–	–	–	–	–	inactive	inactive	–
COc1ccc([C@H]2N[C@@H](c3ccc(OC)cc3)C3CCCC2/C3=N/N=c2/[nH]c(-c3ccccc3)cs2)cc1	25 µg/mL (≈ 47.6 µM)	–	–	100 µg/mL (≈ 191 µM)	200 µg/mL (≈ 381 µM)	12.5 µg/mL (≈ 23.8 µM)	100 µg/mL (≈ 191 µM)	100 µg/mL (≈ 191 µM)	25 µg/mL (≈ 47.6 µM)	12.5 µg/mL (≈ 23.8 µM)	–	–	–	–	–	inactive	–	inactive
Clc1ccc([C@H]2N[C@@H](c3ccc(Cl)cc3)C3CCCC2/C3=N/N=c2/[nH]c(-c3ccccc3)cs2)cc1	25 µg/mL (≈ 46.9 µM)	25 µg/mL (≈ 46.9 µM)	50 µg/mL (≈ 93.7 µM)	100 µg/mL (≈ 187 µM)	100 µg/mL (≈ 187 µM)	200 µg/mL (≈ 375 µM)	200 µg/mL (≈ 375 µM)	50 µg/mL (≈ 93.7 µM)	25 µg/mL (≈ 46.9 µM)	25 µg/mL (≈ 46.9 µM)	–	–	–	–	–	–	–	–
